In patent US9512140B2, “(Thieno[2,3-b][1,5]benzoxazepin-4-yl)piperazin-1-yl compounds as dual activity H1 inverse agonists/5-HT2A antagonists” (priority 2011, dated 2016):
Where a name gives a salt, the structure may show the parent alone.

Legend:
Plasma clearance, dog = type: in vivo; conditions: male, Beagle, 1 mg/kg, intravenous, 1 mL/kg of 1.0 mg/mL
Protocol: Male Beagle dogs (body weight range 10-12 kg) are obtained from Marshall Bioresources, USA. Test compound is administered intravenously in solution (1 mL/kg) in 20% Captisol® in 22.5 mM phosphate buffer, pH 2, at a final drug concentration of 1.0 mg/mL (free base equivalents). Blood samples are obtained from the jugular vein over 24 hr. Samples of plasma are obtained by centrifugation and stored frozen (−20° C.) prior to analysis. Frozen plasma samples are thawed to room temperature for bioanalysis of concentrations of test compound. A related internal standard compound in acetonitrile/methanol (1:1, v/v) is added to all samples of plasma (1:1, v/v). The samples are centrifuged to remove precipitated protein prior to analysis. The supernatants are analysed by injection and rapid gradient elution on a Javelin Betasil C18 column (20×2.1 mm cartridge, Mobile phase A: Water/1 M NH4HCO3, 2000:10 v/v, Mobile Phase B: MeOH/1 M NH4HCO3, 2000:10 v/v). The eluted analytes are detected by LC-MS-MS analysis using a Sciex API 4000 triple quadrupole mass spectrometer. Concentrations of compound are determined from standards prepared and analysed under identical conditions. Clearance is calculated using non-compartmental analysis in Watson 7.4, Thermo Fisher Scientific, Inc.

5-HT2B = 5-HT2B (Homo sapiens, UniProt P41595); experiment: 5-HT2B binding
Excerpt: (§1) Further, the compounds of the invention may be tested in binding assays and functional activity assays by well known methods for other physiologically important receptors such as, but not limited to, the hERO channel, other serotonin receptors (specifically 5-HT1B, 5-HT1D, receptors, lack of agonist activity at 5-HT2B receptors, 5-HT2C, 5-HT5, 5-HT6, and 5-HT7 receptors), dopaminergic receptors (specifically D1, D2, and D3), GABAA receptors, adrenergic receptors and monoamine transporters.

Serotonin Transporter = Serotonin Transporter (Homo sapiens, UniProt P31645); experiment: Serotonin transporter binding
Excerpt: as §1

[1] = biological target: T1, recombinant 5-HT2A receptor (human) (Homo sapiens, UniProt P28223); experiment: 5-HT2A competition binding assay ([3H]-Ketanserin, SPA)
T1 construct: expressed in transfected cells; host or cells: AV-12 (membranes)
Protocol: [^3H]-Ketanserin binding experiments are carried out in SPA 96-well format. Membranes used in this assay are prepared from AV-12 cells stably expressing recombinant 5-HT2A receptor (human). The incubation is initiated by the addition of a mixture of WGA YSi SPA beads (1 mg/well, Perkin Elmer (MA, USA), RPNQ0011) and 2 μg membranes to assay buffer (67 mM Tris, 0.5 mM EDTA; pH 7.6) containing 3.1 nM [^3H]-Ketanserin and varying concentrations of the test compound (10 point concentration response curves). Non-specific binding is determined in the presence of 20 μM 1-(1-Naphthyl) piperazine. Samples are incubated for 4 hr. at room temperature (22° C.) and then read in a Microbeta Trilux.
Curves are evaluated using a 4-parameter logistic nonlinear equation to obtain the concentration of competitor causing 50% inhibition of radioligand binding (IC50). Equilibrium dissociation constants (Ki) are calculated according to the equation Ki=IC50/(1+L/Kd), where L equals the concentration of radioligand used in the experiment and Kd equals the equilibrium dissociation constant of the radioligand for the receptor, determined from standard saturation analysis or homologous competition experiments. Reported values for Ki, where n values are indicated, are shown as geometric mean±the standard error of the mean (SEM), with the number of replicate determinations indicated by n. […]

native GABAA receptors = experiment: GABAA antagonism using native receptors in primary neuronal cultures (FLIPR); type: cell-based; conditions: against GABA at 10 μM, rat cortical embryonic neurons
Protocol: Activity of compounds on native GABAA receptors is evaluated by monitoring calcium fluxes using a 96 well format FLIPR® system (Fluorometric Imaging Plate Reader (FLIPR®, Molecular Devices). Briefly, cortical embryonic neurons are dissociated from E18 rat embryos and plated at optimum density into black-walled, transparent bottom poly-D-lysine coated 96-well FLIPR® plates. After loading the cells with a calcium sensitive dye (Fluo4-AM, Molecular Devices), the cells are bathed in a solution containing low chloride (chloride replaced by gluconate). Under these conditions activation of GABAA receptors causes an efflux of chloride ions (in the direction of the chemical gradient), which results in membrane depolarization and consequently activation of voltage gated calcium channels (VGCCs). Calcium influx through VGCCs is recorded and analysed offline using the FLIPR® system. For a pharmacological validation of the assay, concentration response curves (CRC) are recorded for the standard agonist (GABA) and standard antagonist (Gabazine). […]
The antagonist effects of compounds are quantified using 10-point dose response curves by comparing the peak fluorescent responses to the agonist GABA in the presence and absence of compound. […] Antagonist effects are calculated as a percent of the assay window. […]

Serotonin Transporter, sequence (P31645 whole entry): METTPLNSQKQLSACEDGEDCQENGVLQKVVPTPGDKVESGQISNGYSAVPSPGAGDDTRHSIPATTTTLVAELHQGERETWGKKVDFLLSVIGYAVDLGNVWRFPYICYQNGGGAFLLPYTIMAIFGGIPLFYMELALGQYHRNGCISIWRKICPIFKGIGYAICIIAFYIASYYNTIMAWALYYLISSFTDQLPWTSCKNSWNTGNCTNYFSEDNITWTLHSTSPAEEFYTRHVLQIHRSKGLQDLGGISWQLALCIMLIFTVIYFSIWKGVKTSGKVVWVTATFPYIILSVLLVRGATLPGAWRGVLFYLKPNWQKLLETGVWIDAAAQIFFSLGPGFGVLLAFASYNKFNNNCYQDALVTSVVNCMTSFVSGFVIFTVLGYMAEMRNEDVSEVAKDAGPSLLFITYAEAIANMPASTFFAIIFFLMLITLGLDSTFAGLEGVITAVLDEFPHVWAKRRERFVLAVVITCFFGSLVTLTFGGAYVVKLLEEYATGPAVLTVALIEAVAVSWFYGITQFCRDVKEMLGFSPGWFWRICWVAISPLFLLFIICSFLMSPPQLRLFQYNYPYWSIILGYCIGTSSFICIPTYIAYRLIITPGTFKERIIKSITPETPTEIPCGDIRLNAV
T1 sequence (P28223 whole entry): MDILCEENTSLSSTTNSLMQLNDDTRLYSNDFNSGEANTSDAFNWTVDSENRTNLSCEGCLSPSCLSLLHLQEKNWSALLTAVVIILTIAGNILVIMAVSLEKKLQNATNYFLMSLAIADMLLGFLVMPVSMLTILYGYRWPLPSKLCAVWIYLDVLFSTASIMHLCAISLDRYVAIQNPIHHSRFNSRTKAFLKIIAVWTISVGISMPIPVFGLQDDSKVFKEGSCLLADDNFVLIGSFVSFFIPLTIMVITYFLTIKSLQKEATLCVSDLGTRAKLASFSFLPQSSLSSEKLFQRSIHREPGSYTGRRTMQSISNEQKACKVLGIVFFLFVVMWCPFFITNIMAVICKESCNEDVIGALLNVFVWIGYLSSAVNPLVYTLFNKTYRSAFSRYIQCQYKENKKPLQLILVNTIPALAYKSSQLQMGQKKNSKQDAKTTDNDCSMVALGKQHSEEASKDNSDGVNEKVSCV
5-HT2B, sequence (P41595 whole entry, species assumed): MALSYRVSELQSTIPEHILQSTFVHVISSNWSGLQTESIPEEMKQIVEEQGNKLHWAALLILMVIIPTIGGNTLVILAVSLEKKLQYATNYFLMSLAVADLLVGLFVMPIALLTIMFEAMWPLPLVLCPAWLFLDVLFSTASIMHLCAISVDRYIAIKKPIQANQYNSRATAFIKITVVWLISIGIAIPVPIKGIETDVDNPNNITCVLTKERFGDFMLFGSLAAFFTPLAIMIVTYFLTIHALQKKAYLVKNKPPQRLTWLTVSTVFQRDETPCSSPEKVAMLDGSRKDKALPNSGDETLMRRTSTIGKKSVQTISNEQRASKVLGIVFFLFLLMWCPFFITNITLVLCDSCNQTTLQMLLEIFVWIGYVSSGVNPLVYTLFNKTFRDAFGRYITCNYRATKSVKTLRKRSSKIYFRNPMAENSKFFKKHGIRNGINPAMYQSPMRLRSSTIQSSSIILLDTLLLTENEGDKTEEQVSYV

Cc1ccc2c(c1)Oc1sc(C)cc1C(N1CCN(CC(C)(C)C(=O)O)CC1)=N2 [Example 2, 3-[4-(2,8-Dimethylthieno[2,3-b][1,5]benzoxazepin-4-yl)piperazin-1-yl]-2,2-dimethyl-propanoic acid dihydrochloride]
clearance (Plasma clearance, dog): 2.8 mL/min/kg | Ki (5-HT2B): 95.8 nM | Ki (Serotonin Transporter): > 651 nM | Ki [1]: 11.3 nM | IC50 (native GABAA receptors): 98 µM
